Experimental data as given in paper PMC10636063, “Progesterone activation of β1-containing BK channels involves two binding sites” (Nature Communications, 2023).
Values joined by “and” are separate entries in the source; they are usually repeats but may differ in a detail not shown here. Equal entries are not always repeated.

Legend:
[1] = tested on: pial arteries branching out of the MCA (C57BL/6J); test: Cerebral artery diameter through cranial window in vivo; set-up: species or system mouse; conditions: individual replicates
Method: Eight-12 week-old male and female C57BL/6J mice were anesthetized with a mixture of xylazine/ketamine (12/100 mg per kg) and kept anesthetized for the duration of the experiment with subsequent ketamine doses (50 mg/kg of weight) as needed. A catheter was inserted into the carotid artery so that the infusion went straight to the brain rather than towards the thoracic cavity. An area of the skull was cleared of tissue and thinned to expose the branching arteries originating from the MCA on the side the catheter was inserted, above the zygomatic arch, between the ear and eye of the skull[19],[34]. The exposed arteries branching out from the MCA were monitored using a Leica MC170 HD microscope with a mounted camera (Leica M125 C) connected to a computer monitor. Drugs were diluted to their final concentration in sodium saline (0.9% NaCl) and administered via catheter at 0.1 ml/25 g of weight. Cranial window images before and after drug administration were acquired every 60 seconds for subsequent analysis.

[2] = target: T1, slo1 (cbv1 isoform)+β1 BK channels (Rattus norvegicus, UniProt P97678); test: Channel activity (NPo) in POPE/POPS planar lipid bilayers, cbv1+β1; assay type: biochemical
T1 construct: made in house; host or cells: CHO cells, transient transfection; sucrose-gradient membrane preparation
T1 sequence (P97678 whole entry, canonical isoform): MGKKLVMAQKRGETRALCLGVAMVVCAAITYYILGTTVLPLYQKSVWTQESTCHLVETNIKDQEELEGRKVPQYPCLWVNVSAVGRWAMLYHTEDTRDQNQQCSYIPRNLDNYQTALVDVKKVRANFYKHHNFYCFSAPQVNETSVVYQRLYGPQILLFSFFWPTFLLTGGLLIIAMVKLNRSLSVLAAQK
T1 sequence (Q62976 1-1148 isoform Q62976-2 partner): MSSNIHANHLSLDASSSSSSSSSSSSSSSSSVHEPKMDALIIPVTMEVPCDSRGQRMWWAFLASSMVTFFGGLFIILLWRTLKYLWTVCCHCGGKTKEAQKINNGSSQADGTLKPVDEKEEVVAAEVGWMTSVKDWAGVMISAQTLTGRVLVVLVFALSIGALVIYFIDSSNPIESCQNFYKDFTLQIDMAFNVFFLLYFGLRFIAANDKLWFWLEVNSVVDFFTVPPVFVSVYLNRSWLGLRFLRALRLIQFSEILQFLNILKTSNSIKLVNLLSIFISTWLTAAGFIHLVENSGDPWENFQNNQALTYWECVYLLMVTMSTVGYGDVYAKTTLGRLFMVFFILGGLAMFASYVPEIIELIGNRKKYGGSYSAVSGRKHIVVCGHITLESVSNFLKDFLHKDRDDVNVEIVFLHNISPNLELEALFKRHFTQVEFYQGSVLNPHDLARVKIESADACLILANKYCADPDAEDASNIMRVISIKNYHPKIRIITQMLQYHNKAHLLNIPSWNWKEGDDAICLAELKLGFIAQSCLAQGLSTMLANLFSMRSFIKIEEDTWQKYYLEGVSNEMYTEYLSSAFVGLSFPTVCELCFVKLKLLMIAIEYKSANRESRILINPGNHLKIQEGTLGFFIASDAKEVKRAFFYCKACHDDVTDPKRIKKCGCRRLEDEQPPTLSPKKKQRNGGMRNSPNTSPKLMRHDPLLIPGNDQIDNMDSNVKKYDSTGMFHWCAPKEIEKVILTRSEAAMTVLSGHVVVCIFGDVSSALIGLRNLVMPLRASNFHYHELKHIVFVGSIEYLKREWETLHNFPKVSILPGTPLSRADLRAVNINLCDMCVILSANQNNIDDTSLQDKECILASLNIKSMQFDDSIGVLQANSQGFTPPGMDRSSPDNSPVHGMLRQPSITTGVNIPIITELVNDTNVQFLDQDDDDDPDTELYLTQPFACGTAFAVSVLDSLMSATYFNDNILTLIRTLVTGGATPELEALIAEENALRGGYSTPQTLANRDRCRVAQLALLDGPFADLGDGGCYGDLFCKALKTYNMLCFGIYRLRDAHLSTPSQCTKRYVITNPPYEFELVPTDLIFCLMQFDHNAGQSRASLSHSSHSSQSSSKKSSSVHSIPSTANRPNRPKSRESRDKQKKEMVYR
Text: BK channel-forming slo1 cDNA (cbv1 isoform; AY330293) was cloned from rat cerebral artery SM cells, and inserted into pcDNA3.1 vector as described. BK β1 cDNA (KCNMB1 product; NP_011452; FJ154955) were isolated from rat cerebral artery SM cells and cloned as described. β4 cDNA (KCNMB4; NP_055320; AY028605) were generously provided by Dr. Ligia Toro. CHO cells were transiently transfected with cbv1 ± β1-, or β4-carrying pcDNA3.1 using X-tremeGENE HP (Sigma-Aldrich). Mutations to β1/4 cDNAs were conducted by Genscript, with sequences being confirmed to be >99% identical to KCNMB1 product; NP_011452 or β4 KCNMB4; NP_055320; respectively. β1/4 and mutant constructs were flag-tagged (DYKDDDDK-tag) by Genscript services for subsequent immunoprecipitation and use in microscale thermophoresis studies.
Proteins for electrophysiological recordings in artificial lipid bilayers remained untagged. Cells were transiently transfected as described above, pelleted and re-suspended on ice in 10 ml of buffer solution of the following composition (mM): 30 KCl, 2 MgCl2, 10 HEPES, 5 EGTA; pH 7.2. A membrane preparation was obtained using a sucrose gradient as described. Aliquots were stored at −80 °C. BK channel-mediated ionic current was recorded in planar lipid bilayers consisting of a POPE:POPS 3:1 (w/w) mixture. Lipid mixtures were dried under N2 and re-suspended in 25 mg/ml of n-decane BK currents following incorporation into horizontal bilayers at 300/30 mM cis/trans gradient as detailed elsewhere. Ion currents were obtained during a 10-min gap-free recording at 0 mV in the presence of 0.01, 10 μM PROG, 10 μM PROG-oxime, or vehicle control (dimethyl sulfoxide; DMSO). Currents were obtained in gap-free mode using a Warner BC-525D amplifier, low pass-filtered at 1 kHz and sampled at 5 kHz with Digidata 1550B/pCLAMP 11 (Molecular Devices). For comparison with previous data from us[16],[17],[45]–[47], studies were conducted at 20–22 °C. […]
Patch-clamp and bilayer data were analyzed using Clampfit 10.7 software (Molecular Devices). NPo was used as an index of channel steady-state activity where N = number of channels in the patch (defined as a maximal number of opening levels at Po≤1) and Po=single channel open probability. Drug-induced NPo changes were determined by comparing baseline NPo (i.e., NPo with the patch/cell perfused with bath solution) to the NPo from the same patch/cell exposed to the agent under study (DMSO/PROG/oxime) dissolved in bath solution. NPo and mean open time values were automatically calculated using Clampfit 10.7, the latter using a 50% threshold detection event.

## CC(=O)C1CCC2C3CCC4=CC(=NOCC(=O)O)CCC4(C)C3CCC12C (stereo not drawn) [PROG-oxime, progesterone 3-(O-carboxymethyl)oxime]
[1]; Fig 7C, time 0, male mice
  artery diameter, normalized to time 0: 1 (4×) and 1.00
[1]; Fig 7C, time 1, male mice
  artery diameter, normalized to time 0: 0.9683 and 1.00 and 1.045 and 1.037 and 1.174
[1]; Fig 7C, time 2, male mice
  artery diameter, normalized to time 0: 0.9748 and 0.99 and 1.075 and 1.065 and 0.9672
[1]; Fig 7C, time 3, male mice
  artery diameter, normalized to time 0: 0.9521 and 0.88 and 1.045 and 0.8398 and 1.066
[1]; Fig 7C, time 4, male mice
  artery diameter, normalized to time 0: 0.9683 and 0.84 and 0.9351 and 0.8169 and 0.9018
[1]; Fig 7C, time 5, male mice
  artery diameter, normalized to time 0: 1.008 and 1.01 and 1.026 and 0.9472 and 0.9098
[1]; Fig 7C, time 6, male mice
  artery diameter, normalized to time 0: 1.041 and 0.92 and 0.9494 and 0.9176 and 1.063
[1]; Fig 7C, time 7, male mice
  artery diameter, normalized to time 0: 0.9184 and 0.90 and 0.9635 and 0.9259 and 0.9935
[1]; Fig 7C, time 8, male mice
  artery diameter, normalized to time 0: 0.9894 and 0.92 and 0.9405 and 0.9778 and 0.9794
[1]; Fig 7C, time 9, male mice
  artery diameter, normalized to time 0: 0.8438 and 0.91 and 1.0031 and 0.973 and 0.9169
[1]; Fig 7D, time 0, female mice
  artery diameter, normalized to time 0: 1.00 and 1 (4×)
[1]; Fig 7D, time 1, female mice
  artery diameter, normalized to time 0: 0.90 and 1.017 and 1.077 and 0.9108 and 0.9562
[1]; Fig 7D, time 2, female mice
  artery diameter, normalized to time 0: 0.98 and 0.9692 and 1.08 and 1.015 (2×)
[1]; Fig 7D, time 3, female mice
  artery diameter, normalized to time 0: 0.96 and 0.8809 and 1.0998 and 0.9303 and 1.006
[1]; Fig 7D, time 4, female mice
  artery diameter, normalized to time 0: 0.71 and 0.9764 and 0.9876 and 0.9569 and 0.8502
[1]; Fig 7D, time 5, female mice
  artery diameter, normalized to time 0: 0.75 and 0.9574 and 1.009 and 0.7872 and 0.892
[1]; Fig 7D, time 6, female mice
  artery diameter, normalized to time 0: 0.76 and 0.8573 and 1.009 and 0.8606 and 0.8869
[1]; Fig 7D, time 7, female mice
  artery diameter, normalized to time 0: 0.82 and 0.8681 and 0.9667 and 0.8496 and 0.8082
[1]; Fig 7D, time 8, female mice
  artery diameter, normalized to time 0: 0.87 and 0.8872 and 1.0207 and 0.8807 and 0.7534
[1]; Fig 7D, time 9, female mice
  artery diameter, normalized to time 0: 0.74 and 0.8893 and 0.9136 and 0.9444 and 0.8332
[1]; Fig 7E, same values as Fig 7C time 7, male mice
  artery diameter, normalized (PROG vs oxime comparison): 0.8986
[1]; Fig 7F, same values as Fig 7D time 7, female mice
  artery diameter, normalized (PROG vs oxime comparison): 0.97 and 0.85 and 0.81
[2]; 10 μM PROG-oxime, min 8, single records
  NPo/NPobasal: 1.05 and 1.498 and 1.058 and 0.7956 and 1.316
[2]; 10 μM PROG-oxime, min 9, single records
  NPo/NPobasal: 1.025 and 1.49 and 0.9987 and 0.8873 and 1.604
[2]; 10 μM PROG-oxime, min 10, single records
  NPo/NPobasal: 1.45 and 1.329 and 1.113 and 0.8109 and 1.283
[2]; 10 μM PROG-oxime, single records (Fig 3E)
  maximal changes in channel activity (NPo/NPobasal): 1.0077 and 0.9962 and 1.086 and 1.4825 and 1.776 and 1.183
[2]; 10 μM, cis chamber, vs DMSO
  action on channel activity (NPo): did not differ from that evoked by vehicle control
